Results taken from patent publication US20030100109A1, “Methods and compositions for in vitro germination and propagation of polygonatum cirrhifolium royle” (priority 2001, published 2003).
Several values for one entry are separate records, joined by “and”; a condition that tells them apart may be missing. Identical values can stand only once.

Columns and labels:
[1] = tested on: Polygonatum cirrhifolium Royle seeds; test: Induction of germination (hypocotyl emergence) on modified MS medium with GA3 at 30° C. in dark; assay type: in vivo; conditions: modified MS culture medium; for Percent germination: mean ± S.E.
Method: Ripe purplish berries from plants grown in the wild were collected and dehydrated for 15 days at room temperature (29° C.±2° C.). Seeds were collected from dehydrated berries and washed in tap water with 1-2 drops of Tween-20™ for 2 hours and rinsed three times in distilled water. Seeds were then surface sterilized with 0.1% mercuric chloride (HgCl2) for 3 minutes. Mercuric chloride was removed by washing seeds four times in sterile distilled water. Sterilized, rinsed seeds were placed on semi-solid culture medium in sterile disposable plastic Petri plates (10 cm×2 cm). Macro and micro nutrients in the basal medium were that of Murashige and Skoog's (Murashige, T. and Skoog, F. […]. Physiol Plant 15: 433 -497) but modified to contain 2.2 g/L NH4NO3, 2.0 g/L KNO3, 0.44 g/l CaCl2.2H2O, 0.37 g/L MgSO4.7H20, 0.17 g/L KH2PO4, 37.25 mg/L Na2 EDTA, 27.8 mg/L FeSO4.7H20, 0.83 mg/L KI, 6.2 mg/L H3BO3, 22.3 mg/L MnSO4.4H20, 8.6 mg/L ZnSO4.7H20, 0.25 mg/L Na2 MoO4.2H20, 0.025 mg/L CuSO4.5H2O, 0.025 mg/L CoCl2.6H20. This medium was supplemented with 250 mg/L myo-inosital, 0.5 mgl/l nicotinic acid, 0.5 mg/L pyridoxine HCl, 3 mg/L thiamine HCl, 2 mg/L glycine, 30 g/L sucrose, 7.5 g/L agar and 2, 10, 25, and 50 mg/L gibberellic acid. The pH of the medium was adjusted to 5.8 before adding agar. Medium was sterilized at 121° C. (15 lb. psi pressure) for 20 minutes. […] Seeds with emerged hypocotyl were transferred under aseptic conditions to the above defined basal culture medium containing gibberellic acid at 5, 25, 50 and 100 mg/L. Transferred plants were incubated in an environment having 8-16-hr days under about 2000 lux of light and about 8-16-hr nights in total darkness at a constant temperature of 20° C. ([…]) and at 50-60% RH. Illumination was provided by 40-watt cool, white fluorescent tubes. Germination synchronization as indicated by differentiated epicotyl with emergent coleoptile and radicle was recorded on daily basis. Tables 1 and 2 show the induction of germination as indicated by the emergence of hypocotyl at temperature of 30° C. (±2° C.; dark; RH 50-60%) and diurnal temperature of 30/20° C. (±2° C.; dark; RH 50-60%). Experiment consisted of 4 treatments in the form of varying levels of GA3 (2, 10, 25 and 50 mg/L) supplemented to culture medium consisting of 2.2 g/L NH4NO3, 2.0 g/L KNO3, 0.44 g/l CaCl2.2H2O, 0.37 g/L MgSO4.7H20, 0.17 g/L KH2PO4, 37.25 mg/L Na2 EDTA, 27.8 mg/L FeSO4.7H20, 0.83 mg/L KI, 6.2 mg/L H3BO3, 22.3 mg/L MnSO4.4H20, 8.6 mg/L ZnSO4.7H20, 0.25 mg/L Na2 MoO4.2H20, 0.025 mg/L CuSO4.5H2O, 0.025 mg/L CoCl2.6H20, 250 mg/L myo-inositol, 0.5 mg/L nicotinic acid, 0.5 mg/L pyridoxine HCl, 3 mg/L thiamine HCl, 2 mg/L glycine, 30 g/L sucrose and 7.5 g/L agar. Each treatment consisted of 15 replicates with 5 seeds in each. These were incubated at a constant temperature of 30° C. under continuous darkness at a RH of 60%. With the increase in GA3 concentration, there is concomitant increase in germination (Table 1). Maximum germination of 98.53% was obtained at 25 mg/L of GA3. Germination extended from 24-61 days (maximum duration) at 2 mg/L of GA3 and 7-23 days (minimum duration) at 50 mg/L of GA3 respectively.

[2] = tested on: Polygonatum cirrhifolium Royle secondary explants; test: De novo axillary bud differentiation and release of foliage leaves on MS medium with GA3, BAP and NAA; assay type: in vivo; conditions: for Percentage axillary buds producing leaves / Percentage secondary-explants producing axillary buds / Mean number of axillary buds per secondary explant: MS medium, after 16 weeks of culture; for Mean number of axillary buds per secondary explant: ± SE
Text: Cultures were maintained at 50-60% RH. Plants were subcultured every four weeks in both sets of experiments on the same media formulations. Observations were made periodically but final data was compiled after 16 weeks of culture. In still another embodiment of the present invention, results in table 4 and 5 show the influence of various concentrations and combinations of BAP, NAA and GA3 on the in vitro release of epicotyl dormancy indicated by the release of rosette of leaves and induction of de novo axillary bud differentiation and their sprouting at 20-24° C. under 10-16 hr photoperiod (2000-3500 lux) at 50-60% of RH. […] Each treatment consisted of 24 cultures. These were incubated at 20° C. under 16 hr photoperiod (2000 lux) at 60% RH. […] There is a concomitant increase in the elicitation of response with the increasing concentrations of GA3.

[3] = GA3 1. mg/L in combination and 1.0 mg/L of NAA
[4] = GA3 5. mg/L in combination and 1.0 mg/L of NAA
[5] = GA3 10. mg/L in combination and 1.0 mg/L of NAA
[6] = GA3 15. mg/L in combination and 1.0 mg/L of NAA
[7] = GA3 20. mg/L in combination and 1.0 mg/L of NAA

## C=C1C[C@]23C[C@@]1(O)CC[C@H]2[C@@]12C=C[C@H](O)[C@@](C)(C(=O)O1)[C@H]2[C@@H]3C(=O)O [GA3, gibberellic acid]
[1]; GA3 2 mg/L
  Duration of germination: 24 to 61 days
  Percent germination: 23.69 ± 7.04 %
[1]; GA3 10 mg/L
  Duration of germination: 19 to 53 days
  Percent germination: 66.18 ± 4.77%
[1]; GA3 25 mg/L
  Duration of germination: 11 to 30 days
  Percent germination: 98.53% and 98.53 ± 3.82%
[1]; GA3 50 mg/L
  Duration of germination: 7 to 23 days
  Percent germination: 97.11 ± 4.01%
[2]; [3]
  Percentage axillary buds producing leaves: 37.03%
  Percentage secondary-explants producing axillary buds: 16.67%
  Mean number of axillary buds per secondary explant: 2.70 ± 0.70
[2]; GA3 1. mg/L in combination and 1.0 mg/L of NAA, remark wraps over r12-r14: Epicotylar bulge swells forms rhizomatous base
  Remarks: Epicotylar bulge
[2]; [4]
  Percentage axillary buds producing leaves: 46.58— %
  Percentage secondary-explants producing axillary buds: 70.83%
  Mean number of axillary buds per secondary explant: 6.44 ± 1.04
[2]; [5]
  Percentage axillary buds producing leaves: 66.22%
  Percentage secondary-explants producing axillary buds: 87.50%
  Mean number of axillary buds per secondary explant: 9.06 ± 2.00
[2]; [6]
  Percentage axillary buds producing leaves: 77.12%
  Percentage secondary-explants producing axillary buds: 100.00%
  Mean number of axillary buds per secondary explant: 11.67 ± 1.96
[2]; [7]
  Percentage axillary buds producing leaves: 97.03%
  Percentage secondary-explants producing axillary buds: 100.00%
  Mean number of axillary buds per secondary explant: 8.96 ± 2.01
[2]; GA3 20. mg/L in combination and 1.0 mg/L of NAA, remark wraps over r18-r20: Rhizomatous base, callus induction
  Remarks: Rhizomatous
